These results are taken from patent publication US6369069B1 (Aventis Pharma Deutschland GmbH, priority 1998, dated 2002).

In this assay the test system is Na^+-dependent Cl^−/HCO3^− exchanger (NCBE). The assay can be described thus: Inhibition of the Na+-dependent Cl−/HCO3− exchanger (NCBE) in human endothelial cells (pHi recovery, BCECF fluorescence, FLIPR). It is filed as cell-based. To be noted: 10 μM. The gist of the method: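 Fluorescence rise (FLIPR, 2 min, 35 °C) tracked pHi recovery in acid-loaded, BCECF-loaded ECV-304 cells after adding Na+- and HCO3−-containing buffer with 50 μM HOE 642 and graded compound doses. Inhibition was calculated against full-recovery and bicarbonate-free no-recovery controls.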
As to `C#CCN(Cc1ccc(-c2ccccc2S(=O)(=O)NC#N)cc1)C(=O)C(NC(=O)OCc1ccccc1)c1ccccc1` (centres unmarked) [Example 246], the “Residual activity % of the NCBE at 10 μM” value is on record as 65.0%.
Under `C#CCN(Cc1ccc(-c2ccccc2S(=O)(=O)NC#N)cc1)C(=O)CCCCc1ccccc1` [Example 247] stands 74.6%.
On to `C#CCN(Cc1ccc(-c2ccccc2S(=O)(=O)NC#N)cc1)C(=O)C(=O)c1ccco1` [Example 248], for which the “Residual activity % of the NCBE at 10 μM” value is on record as 66.6%.
For the compound `C#CCN(Cc1ccc(-c2ccccc2S(=O)(=O)NC#N)cc1)C(=O)CCC1CCCCC1` [Example 249], the “Residual activity % of the NCBE at 10 μM” value is given as 76.1%.
On to `N#CNS(=O)(=O)c1ccccc1-c1ccc(CN(Cc2cccs2)C(=O)Cc2cccs2)cc1` [Example 250], for which the “Residual activity % of the NCBE at 10 μM” value came to 41.1%.
In the case of `N#CNS(=O)(=O)c1ccccc1-c1ccc(CN(Cc2cccs2)C(=O)C(NC(=O)OCc2ccccc2)c2ccccc2)cc1` (centres unmarked) [Example 251], the “Residual activity % of the NCBE at 10 μM” value is 83.9%.
Turning to `N#CNS(=O)(=O)c1ccccc1-c1ccc(CN(Cc2cccs2)C(=O)Cc2ccccc2[N+](=O)[O-])cc1` [Example 252], the “Residual activity % of the NCBE at 10 μM” value turned out to be 44.5%.
`N#CNS(=O)(=O)c1ccccc1-c1ccc(CN(Cc2cccs2)C(=O)CCCCc2ccccc2)cc1` [Example 253]: the “Residual activity % of the NCBE at 10 μM” value worked out at 35.3%.
`N#CNS(=O)(=O)c1ccccc1-c1ccc(CN(Cc2cccs2)C(=O)C(=O)c2ccco2)cc1` [Example 254]: the “Residual activity % of the NCBE at 10 μM” value is reported as 64.5%.
For `N#CNS(=O)(=O)c1ccccc1-c1ccc(CN(Cc2cccs2)C(=O)CCC2CCCCC2)cc1` [Example 255], the “Residual activity % of the NCBE at 10 μM” value amounted to 61.0%.
Under `N#CNS(=O)(=O)c1ccccc1-c1ccc(CN(CC2CCCCC2)C(=O)Cc2cccs2)cc1` [Example 256] stands 36.4%; under `N#CNS(=O)(=O)c1ccccc1-c1ccc(CN(CC2CCCCC2)C(=O)Cc2ccccc2[N+](=O)[O-])cc1` [Example 257], 54.6%; under `N#CNS(=O)(=O)c1ccccc1-c1ccc(CN(CC2CCCCC2)C(=O)C(=O)c2ccco2)cc1` [Example 258], 95.8%.
Under `N#CNS(=O)(=O)c1ccccc1-c1ccc(CN(Cc2ccc(Cl)c(Cl)c2)C(=O)Cc2cccs2)cc1` [Example 259] stands 40.1%.
For `N#CNS(=O)(=O)c1ccccc1-c1ccc(CN(Cc2ccc(Cl)c(Cl)c2)C(=O)C(NC(=O)OCc2ccccc2)c2ccccc2)cc1` (centres unmarked) [Example 260], the “Residual activity % of the NCBE at 10 μM” value was determined as 69.8%.
Take `N#CNS(=O)(=O)c1ccccc1-c1ccc(CN(Cc2ccc(Cl)c(Cl)c2)C(=O)Cc2ccccc2[N+](=O)[O-])cc1` [Example 261]: the “Residual activity % of the NCBE at 10 μM” value is listed as 67.7%.
As for `N#CNS(=O)(=O)c1ccccc1-c1ccc(CN(Cc2ccc(Cl)c(Cl)c2)C(=O)CCCCc2ccccc2)cc1` [Example 262], the “Residual activity % of the NCBE at 10 μM” value is recorded as 45.3%.
`N#CNS(=O)(=O)c1ccccc1-c1ccc(CN(Cc2ccc(Cl)c(Cl)c2)C(=O)C(=O)c2ccco2)cc1` [Example 263]: the “Residual activity % of the NCBE at 10 μM” value was found to be 54.0%.
For `N#CNS(=O)(=O)c1ccccc1-c1ccc(CN(Cc2ccc(Cl)c(Cl)c2)C(=O)CCC2CCCCC2)cc1` [Example 264] the value was 74.3%; for `N#CNS(=O)(=O)c1ccccc1-c1ccc(CN(CC2CCCCC2)C(=O)C(NC(=O)OCc2ccccc2)c2ccccc2)cc1` (centres unmarked) [Example 265], 68.9%.
As for `N#CNS(=O)(=O)c1ccccc1-c1ccc(CN(CC2CCCCC2)C(=O)CCCCc2ccccc2)cc1` [Example 266], the “Residual activity % of the NCBE at 10 μM” value amounted to 79.7%.
As to `N#CNS(=O)(=O)c1ccccc1-c1ccc(CN(CC2CCCCC2)C(=O)CCC2CCCCC2)cc1` [Example 267], the “Residual activity % of the NCBE at 10 μM” value was determined as 57.9%.
With `COC(=O)C(c1ccccc1)N(Cc1ccc(-c2ccccc2S(=O)(=O)NC#N)cc1)C(=O)Cc1cccs1` (centres unmarked) [Example 268], the “Residual activity % of the NCBE at 10 μM” value was determined as 79.3%.
Under `CC(C)(C)OC(=O)C(c1ccccc1)N(Cc1ccc(-c2ccccc2S(=O)(=O)NC#N)cc1)C(=O)Cc1cccs1` (centres unmarked) [Example 269] stands 94.4%; under `N#CNS(=O)(=O)c1ccccc1-c1ccc(CN(Cc2ccc(Cl)cc2Cl)C(=O)Cc2cccs2)cc1` [Example 270], 33.9%.
In the case of `N#CNS(=O)(=O)c1ccccc1-c1ccc(CN(Cc2cccc3ccccc23)C(=O)Cc2cccs2)cc1` [Example 271], the “Residual activity % of the NCBE at 10 μM” value stood at 15.9%.
`N#CNS(=O)(=O)c1ccccc1-c1ccc(CN(CCc2ccc(S(N)(=O)=O)cc2)C(=O)Cc2cccs2)cc1` [Example 272]: the “Residual activity % of the NCBE at 10 μM” value came out at 65.0%.
In the case of `N#CNS(=O)(=O)c1ccccc1-c1ccc(CN(Cc2cccc(Cl)c2)C(=O)Cc2cccs2)cc1` [Example 273], the “Residual activity % of the NCBE at 10 μM” value is on record as 32.4%.
Turning to `COC(=O)C(c1ccccc1)N(Cc1ccc(-c2ccccc2S(=O)(=O)NC#N)cc1)C(=O)Cc1ccccc1Br` (centres unmarked) [Example 274], the “Residual activity % of the NCBE at 10 μM” value is reported as 73.6%.
On to `CC(C)(C)OC(=O)C(c1ccccc1)N(Cc1ccc(-c2ccccc2S(=O)(=O)NC#N)cc1)C(=O)Cc1ccccc1Br` (centres unmarked) [Example 275], for which the “Residual activity % of the NCBE at 10 μM” value worked out at 54.6%.
For `N#CNS(=O)(=O)c1ccccc1-c1ccc(CN(Cc2ccc(Cl)cc2Cl)C(=O)Cc2ccccc2Br)cc1` [Example 276] the value was 36.8%; for `N#CNS(=O)(=O)c1ccccc1-c1ccc(CN(Cc2cccc3ccccc23)C(=O)Cc2ccccc2Br)cc1` [Example 277], 36.3%; for `N#CNS(=O)(=O)c1ccccc1-c1ccc(CN(Cc2cccc(Cl)c2)C(=O)Cc2ccccc2Br)cc1` [Example 278], 31.2%.
Turning to `N#CNS(=O)(=O)c1ccccc1-c1ccc(CN(Cc2ccc(Cl)cc2Cl)C(=O)CCS(=O)(=O)c2ccccc2)cc1` [Example 279], the “Residual activity % of the NCBE at 10 μM” value came out at 90.5%.
In the case of `N#CNS(=O)(=O)c1ccccc1-c1ccc(CN(Cc2cccc3ccccc23)C(=O)CCS(=O)(=O)c2ccccc2)cc1` [Example 280], the “Residual activity % of the NCBE at 10 μM” value came out at 63.3%.
Turning to `N#CNS(=O)(=O)c1ccccc1-c1ccc(CN(Cc2cccc(Cl)c2)C(=O)CCS(=O)(=O)c2ccccc2)cc1` [Example 281], the “Residual activity % of the NCBE at 10 μM” value worked out at 68.6%.
Regarding `N#CNS(=O)(=O)c1ccccc1-c1ccc(CN(C(=O)Cc2cccs2)C(C(=O)O)c2ccccc2)cc1` (centres unmarked) [Example 282], the “Residual activity % of the NCBE at 10 μM” value turned out to be 89.0%.
Consider `N#CNS(=O)(=O)c1ccccc1-c1ccc(CN(Cc2ccc(Cl)cc2Cl)C(=O)Cc2ccc(O)cc2)cc1` [Example 283], for which the “Residual activity % of the NCBE at 10 μM” value amounted to 80.0%.
For `N#CNS(=O)(=O)c1ccccc1-c1ccc(CN(Cc2cccc3ccccc23)C(=O)Cc2ccc(O)cc2)cc1` [Example 284], the “Residual activity % of the NCBE at 10 μM” value is 52.9%.
`N#CNS(=O)(=O)c1ccccc1-c1ccc(CN(Cc2cccc(Cl)c2)C(=O)Cc2ccc(O)cc2)cc1` [Example 285]: the “Residual activity % of the NCBE at 10 μM” value was found to be 58.8%.
Take `COC(=O)C(c1ccccc1)N(Cc1ccc(-c2ccccc2S(=O)(=O)NC#N)cc1)C(=O)CCc1cccs1` (centres unmarked) [Example 286]: the “Residual activity % of the NCBE at 10 μM” value amounted to 68.8%.
